Experimental data: patent publication US5981586A, “Methods for treating proliferative and inflammatory skin diseases” (priority 1998, dated 1999)
Entries after “also recorded” stand apart in the source; their conditions may differ. Read-outs that look alike come from different tables or passages of the source.

Tests used:
PPARγ [1] = conditions: cited from earlier work
human keratinocytes [2] = assay: Proliferation of human keratinocytes by PMS/MTS (CellTiter 96 AQueous) assay; assay type: cell-based
Text: Inhibition of proliferating human keratinocytes in culture have been utilized as a system for screening and identifying potential therapeutic agents such as vitamin D derivatives (Kitano et at., 1991) and retinoids (West et at., 1992), for the treatment of inflammatory, proliferative skin diseases (e.g., psoriasis vulgaris, acne vulgaris, hidradenitis suppurativa).
Human keratinocytes were obtained from Clonetics (San Diego, California) and subcultured into a proprietary (Clonetics) medium optimized for cell growth and maintenance. Proliferation of keratinocytes was determined using MTS, 3-(4,5-dimethylthiazol-2-yl)-5-(3-carboxymethoxyphenyl)-2-(4-sulfophen 1)-2H-tetrazolium (PMS/MTS) as described in the CellTiter 96 AQueous Non-Radioactive Cell Proliferation Assay (Promega Inc.). Only viable cells reduce MTS to the soluble formazan, and viable cell numbers correlate with optical density (Cory et at., 1991).
Cells were seeded at 2 to 4×10^4 cells/ml of growth medium in 24 well microtiter plates. Twenty-four hours post-plating cells were treated with vehicle alone (0.1% DMSO) or various concentrations of 15-deoxy-PG J2 was added to each well (quadruplicate samples per concentration) for an additional 4 days. At each time point 100 ul of the PMS/MTS assay mix is added and absorbance at 490 nm was recorded four hours later with a microplate spectrophotometer (BioTek Instrument Co).

PPARγ [3] = conditions: cited from earlier work; remark: listed apart in the source
human keratinocytes [4] = assay: Proliferation of adult human keratinocytes in culture (neutral red dye assay, 4 days); assay type: cell-based
Protocol: The use of proliferating human keratinocytes in culture as a test system for determining the utility of a compound for treating hyperproliferative and inflammatory disorders of the skin is well documented (Kitanot et at., Euro. J Clin. Investig. 21:53-58 (1991) and West, et at., J. Investigative Derm. 99(1):95-100 (1992).)
Cell number was assessed at time zero (before treatment) and at the end of the treatment period by the neutral red dye assay. See Kitano, et at., Euro. J. Clin. Investig. 21:53-58 (1991) and West, et at., J. Investigative Derm. 99(1):95-100 (1992). Each condition was performed in 12 replicates, on keratinocytes from three subjects and the results were combined from the three subjects. […] The coordinate plots the cell growth of the keratinocytes as the percentage of controls.

CC(C)(Oc1ccc(C2CC2(Cl)Cl)cc1)C(=O)O (stereo not shown) [ciprofibrate]
activation of PPARγ (in words) (PPARγ [1]): known to activate PPARγ

CCCCCC=CC=C1C(=O)C=CC1CC=CCCCC(=O)O (stereo not shown) [15-deoxy-PG J2, 15-deoxy-A-12,14-prostaglandin J2]
inhibition at 2 µM (human keratinocytes [2]; Homo sapiens, Keratinocyte, 96 h, 2 uM, 4 days): 22% | inhibition at 4 µM (human keratinocytes [2]; Homo sapiens, Keratinocyte, 96 h, 4 uM, 4 days): 51% | inhibition at 8 µM (human keratinocytes [2]; Homo sapiens, Keratinocyte, 96 h, 8 uM, 4 days): 76% | inhibition at 20 µM (human keratinocytes [2]; Homo sapiens, Keratinocyte, 96 h, 20 uM, 4 days): 100% | IC50 (human keratinocytes [2]; Keratinocyte, 96 h, human keratinocytes, 4 days treatment, read-out: concentration for half-maximal inhibition of growth (IC50)): ~4 µM | % inhibition of proliferation of human keratinocytes (human keratinocytes [2]; concentration not printed in the line (first line of Table 1), 4 days): 5% | inhibition of proliferation of human keratinocytes (in words) (human keratinocytes [2]; cultured human keratinocytes, 4 days): inhibits the proliferation of human keratinocytes in culture; also recorded: dose-dependent inhibition of proliferation | activation of PPARγ (in words) (PPARγ [3]): activate PPARγ to varying degrees

CC(C)(Oc1ccc(CCNC(=O)c2ccc(Cl)cc2)cc1)C(=O)O [bezofibrate]
activation of PPARγ (in words) (PPARγ [1]): known to activate PPARγ

CCOC(=O)C(C)(C)Oc1ccc(Cl)cc1 [clofibrate]
activation of PPARγ (in words) (PPARγ [1]): known to activate PPARγ

Cc1c(C)c2c(c(C)c1O)CCC(C)(COc1ccc(CC3SC(=O)NC3=O)cc1)O2 (stereo not shown) [troglitazone]
inhibition of keratinocyte proliferation (in words) (human keratinocytes [4]; 0.1, 1.0 and 10 μM, 4 days, compared with vehicle 0.1% DMSO): dose-dependent inhibition of keratinocyte proliferation; also recorded: dose-dependent and saturable; also recorded: dose response inhibition of cell growth | IC50 (human keratinocytes [4]; Homo sapiens, Keratinocyte, 96 h, read-out: IC50, antiproliferative effect in human keratinocytes): 2.1 µM
